# Results as given in ChEMBL document CHEMBL5465560, “Selectivity Literature for EUbOPEN Chemogenomic Library” (2024).
# Key:
# [1] = target: Homeodomain-interacting protein kinase 3 (Homo sapiens, UniProt Q9H422); assay: Selectivity interaction (KinomeScan (DiscoverX)) EUB0000229b HIPK3; conditions: at 10 µM
# [2] = target: T1, cGMP-dependent protein kinase 2 (Homo sapiens) (UniProt Q13237); assay: Selectivity interaction (KinomeScan (DiscoverX)) EUB0000229b PRKG2; conditions: at 10 µM
# T1 sequence (whole entry): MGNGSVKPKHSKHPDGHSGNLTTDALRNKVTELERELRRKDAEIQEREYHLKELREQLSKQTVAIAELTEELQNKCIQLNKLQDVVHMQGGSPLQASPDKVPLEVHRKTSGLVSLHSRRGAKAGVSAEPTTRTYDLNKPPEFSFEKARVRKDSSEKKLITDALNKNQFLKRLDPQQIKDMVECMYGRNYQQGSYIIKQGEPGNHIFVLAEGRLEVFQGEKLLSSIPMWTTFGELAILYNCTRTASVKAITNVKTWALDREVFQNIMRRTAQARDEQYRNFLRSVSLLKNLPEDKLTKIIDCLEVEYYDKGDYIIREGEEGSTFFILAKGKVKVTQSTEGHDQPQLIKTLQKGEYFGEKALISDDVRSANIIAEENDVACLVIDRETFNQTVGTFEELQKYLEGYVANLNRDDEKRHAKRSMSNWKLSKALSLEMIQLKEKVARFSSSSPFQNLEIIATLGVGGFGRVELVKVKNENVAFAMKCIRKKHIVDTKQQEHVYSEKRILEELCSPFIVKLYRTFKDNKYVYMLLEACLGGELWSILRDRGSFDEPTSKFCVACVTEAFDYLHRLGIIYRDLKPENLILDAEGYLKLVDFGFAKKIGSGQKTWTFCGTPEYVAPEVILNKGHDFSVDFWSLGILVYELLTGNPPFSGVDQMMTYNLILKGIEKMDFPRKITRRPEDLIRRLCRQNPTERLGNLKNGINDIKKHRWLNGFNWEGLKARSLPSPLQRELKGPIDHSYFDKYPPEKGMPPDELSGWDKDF
# [3] = target: T2, Serine/threonine-protein kinase DCLK1 (Homo sapiens) (UniProt O15075); assay: Selectivity interaction (KinomeScan (DiscoverX)) EUB0000666a DCLK1; conditions: at 10 µM
# T2 sequence (whole entry): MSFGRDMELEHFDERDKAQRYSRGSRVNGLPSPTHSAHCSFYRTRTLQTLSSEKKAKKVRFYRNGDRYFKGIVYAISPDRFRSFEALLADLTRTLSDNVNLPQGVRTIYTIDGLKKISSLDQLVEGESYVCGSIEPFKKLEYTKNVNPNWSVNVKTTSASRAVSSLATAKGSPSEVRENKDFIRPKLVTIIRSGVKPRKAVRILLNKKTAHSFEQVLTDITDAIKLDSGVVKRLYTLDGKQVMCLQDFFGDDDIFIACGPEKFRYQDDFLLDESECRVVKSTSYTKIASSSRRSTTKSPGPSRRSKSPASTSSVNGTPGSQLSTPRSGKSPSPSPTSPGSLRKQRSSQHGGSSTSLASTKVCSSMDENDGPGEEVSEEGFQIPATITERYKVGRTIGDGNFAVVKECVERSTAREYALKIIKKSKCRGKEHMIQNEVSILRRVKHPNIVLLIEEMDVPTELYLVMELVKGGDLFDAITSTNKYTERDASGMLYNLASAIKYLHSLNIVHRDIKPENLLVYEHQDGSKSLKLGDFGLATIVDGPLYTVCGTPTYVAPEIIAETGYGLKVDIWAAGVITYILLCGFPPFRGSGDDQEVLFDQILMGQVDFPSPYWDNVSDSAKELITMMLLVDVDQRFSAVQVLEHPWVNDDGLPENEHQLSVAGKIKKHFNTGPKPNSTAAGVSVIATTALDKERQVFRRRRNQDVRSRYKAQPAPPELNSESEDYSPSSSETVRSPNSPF
# [4] = target: Dual specificity protein kinase CLK4 (Homo sapiens, UniProt Q9HAZ1); assay: Selectivity interaction (KinomeScan (DiscoverX)) EUB0000666a CLK4; conditions: at 10 µM
# Chain of Dual specificity protein kinase CLK4 (Q9HAZ1 whole entry, looked up): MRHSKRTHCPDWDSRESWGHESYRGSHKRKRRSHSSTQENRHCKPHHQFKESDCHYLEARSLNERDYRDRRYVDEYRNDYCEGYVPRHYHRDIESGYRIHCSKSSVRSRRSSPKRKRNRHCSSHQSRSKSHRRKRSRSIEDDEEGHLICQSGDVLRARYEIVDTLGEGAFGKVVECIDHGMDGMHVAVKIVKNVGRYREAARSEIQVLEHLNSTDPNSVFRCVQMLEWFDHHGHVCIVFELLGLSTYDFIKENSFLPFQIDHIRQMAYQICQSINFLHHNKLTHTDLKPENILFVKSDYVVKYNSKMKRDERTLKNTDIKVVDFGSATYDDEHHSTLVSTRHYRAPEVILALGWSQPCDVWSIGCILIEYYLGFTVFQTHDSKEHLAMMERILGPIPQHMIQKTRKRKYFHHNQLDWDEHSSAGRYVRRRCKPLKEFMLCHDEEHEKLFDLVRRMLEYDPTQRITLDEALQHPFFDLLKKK
# [5] = target: Ribosomal protein S6 kinase alpha-3 (Homo sapiens, UniProt P51812); assay: Selectivity interaction (KinomeScan (DiscoverX)) EUB0001049a RPS6KA3; conditions: at 1 µM
# Chain of Ribosomal protein S6 kinase alpha-3 (P51812 whole entry): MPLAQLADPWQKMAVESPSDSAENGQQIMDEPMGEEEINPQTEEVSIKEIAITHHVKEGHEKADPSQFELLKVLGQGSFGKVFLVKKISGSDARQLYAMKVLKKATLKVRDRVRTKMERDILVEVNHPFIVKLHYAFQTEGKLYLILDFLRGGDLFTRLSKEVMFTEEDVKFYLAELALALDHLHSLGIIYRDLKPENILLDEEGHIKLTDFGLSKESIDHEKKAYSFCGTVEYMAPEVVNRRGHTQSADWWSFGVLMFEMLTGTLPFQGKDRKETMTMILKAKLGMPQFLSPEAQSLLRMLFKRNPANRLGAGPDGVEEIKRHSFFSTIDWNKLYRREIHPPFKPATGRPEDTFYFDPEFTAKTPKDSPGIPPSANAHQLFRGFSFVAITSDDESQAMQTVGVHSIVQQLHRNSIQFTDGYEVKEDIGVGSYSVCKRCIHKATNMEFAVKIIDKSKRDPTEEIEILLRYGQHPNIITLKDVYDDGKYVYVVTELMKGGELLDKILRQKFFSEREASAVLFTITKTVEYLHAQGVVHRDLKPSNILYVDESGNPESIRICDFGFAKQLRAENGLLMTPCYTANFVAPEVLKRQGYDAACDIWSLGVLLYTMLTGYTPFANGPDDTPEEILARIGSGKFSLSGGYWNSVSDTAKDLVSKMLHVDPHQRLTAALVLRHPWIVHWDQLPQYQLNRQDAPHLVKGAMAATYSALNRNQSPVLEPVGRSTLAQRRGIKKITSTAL
# [6] = target: Mitogen-activated protein kinase kinase kinase kinase 4 (Homo sapiens, UniProt O95819); assay: Selectivity interaction (KinomeScan (DiscoverX)) EUB0001049a MAP4K4; conditions: at 1 µM
# Chain of Mitogen-activated protein kinase kinase kinase kinase 4 (O95819 2-1239 limits assumed): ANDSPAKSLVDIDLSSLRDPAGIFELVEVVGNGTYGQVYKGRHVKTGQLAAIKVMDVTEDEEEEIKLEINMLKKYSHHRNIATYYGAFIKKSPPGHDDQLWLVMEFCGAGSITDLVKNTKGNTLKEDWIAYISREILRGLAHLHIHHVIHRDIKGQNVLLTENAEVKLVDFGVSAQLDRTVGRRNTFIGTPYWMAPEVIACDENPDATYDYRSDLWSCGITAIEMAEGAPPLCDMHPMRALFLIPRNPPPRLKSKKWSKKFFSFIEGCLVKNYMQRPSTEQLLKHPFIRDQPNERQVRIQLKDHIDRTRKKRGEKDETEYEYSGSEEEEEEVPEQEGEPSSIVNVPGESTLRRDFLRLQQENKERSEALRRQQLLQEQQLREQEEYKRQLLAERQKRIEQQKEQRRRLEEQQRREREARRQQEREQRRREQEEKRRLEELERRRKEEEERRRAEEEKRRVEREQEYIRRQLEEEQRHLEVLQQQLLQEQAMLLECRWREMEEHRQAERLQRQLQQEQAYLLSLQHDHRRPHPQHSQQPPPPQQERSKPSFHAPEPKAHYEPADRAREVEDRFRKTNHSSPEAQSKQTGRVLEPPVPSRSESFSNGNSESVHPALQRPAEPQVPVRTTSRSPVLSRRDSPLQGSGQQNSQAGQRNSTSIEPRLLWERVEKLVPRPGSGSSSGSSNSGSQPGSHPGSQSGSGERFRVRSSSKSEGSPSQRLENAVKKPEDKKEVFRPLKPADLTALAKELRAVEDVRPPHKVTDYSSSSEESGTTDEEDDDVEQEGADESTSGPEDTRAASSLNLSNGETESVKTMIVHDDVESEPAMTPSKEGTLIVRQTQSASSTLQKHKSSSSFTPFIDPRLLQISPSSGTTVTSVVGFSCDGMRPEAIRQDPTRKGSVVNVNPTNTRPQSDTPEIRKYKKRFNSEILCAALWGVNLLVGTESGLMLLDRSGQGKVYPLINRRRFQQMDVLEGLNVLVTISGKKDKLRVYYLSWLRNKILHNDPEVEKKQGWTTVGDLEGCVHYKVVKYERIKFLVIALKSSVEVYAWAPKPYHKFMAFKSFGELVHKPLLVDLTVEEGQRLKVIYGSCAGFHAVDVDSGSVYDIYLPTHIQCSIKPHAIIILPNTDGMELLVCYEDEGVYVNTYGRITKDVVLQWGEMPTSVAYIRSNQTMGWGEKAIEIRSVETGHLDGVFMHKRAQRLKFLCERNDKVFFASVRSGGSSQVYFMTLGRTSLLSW
# [7] = target: Vascular endothelial growth factor receptor 2 (Homo sapiens, UniProt P35968); assay: Selectivity interaction (SelectScreen profiling (Invitrogen)) EUB0000607a KDR; conditions: at 2 µM
# [8] = target: T3, STE20-related kinase adapter protein alpha (Homo sapiens) (UniProt Q7RTN6); assay: Selectivity interaction (ActivX KiNativ screen (kinase selectivity in THP-1 cell lysates)) EUB0000639a STRADA; type: subcellular; conditions: lysate, at 0.2 µM
# T3 sequence (whole entry): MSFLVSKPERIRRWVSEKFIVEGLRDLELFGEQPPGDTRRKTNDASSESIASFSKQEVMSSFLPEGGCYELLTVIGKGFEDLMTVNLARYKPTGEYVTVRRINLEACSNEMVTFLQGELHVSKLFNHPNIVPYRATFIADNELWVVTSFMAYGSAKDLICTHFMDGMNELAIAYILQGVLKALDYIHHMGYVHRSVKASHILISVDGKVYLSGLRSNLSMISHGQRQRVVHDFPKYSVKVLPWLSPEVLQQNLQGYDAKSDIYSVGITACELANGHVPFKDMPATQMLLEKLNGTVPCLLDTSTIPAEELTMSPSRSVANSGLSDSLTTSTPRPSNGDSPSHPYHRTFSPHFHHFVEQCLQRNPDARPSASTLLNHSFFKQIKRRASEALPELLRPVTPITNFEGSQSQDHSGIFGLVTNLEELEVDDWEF
# [9] = target: Tyrosine-protein kinase ABL2 (Homo sapiens, UniProt P42684); assay: Selectivity interaction (ActivX KiNativ screen (kinase selectivity in THP-1 cell lysates)) EUB0000639a ABL2; type: subcellular; conditions: lysate, at 1 µM
# Chain of Tyrosine-protein kinase ABL2 (P42684 whole entry): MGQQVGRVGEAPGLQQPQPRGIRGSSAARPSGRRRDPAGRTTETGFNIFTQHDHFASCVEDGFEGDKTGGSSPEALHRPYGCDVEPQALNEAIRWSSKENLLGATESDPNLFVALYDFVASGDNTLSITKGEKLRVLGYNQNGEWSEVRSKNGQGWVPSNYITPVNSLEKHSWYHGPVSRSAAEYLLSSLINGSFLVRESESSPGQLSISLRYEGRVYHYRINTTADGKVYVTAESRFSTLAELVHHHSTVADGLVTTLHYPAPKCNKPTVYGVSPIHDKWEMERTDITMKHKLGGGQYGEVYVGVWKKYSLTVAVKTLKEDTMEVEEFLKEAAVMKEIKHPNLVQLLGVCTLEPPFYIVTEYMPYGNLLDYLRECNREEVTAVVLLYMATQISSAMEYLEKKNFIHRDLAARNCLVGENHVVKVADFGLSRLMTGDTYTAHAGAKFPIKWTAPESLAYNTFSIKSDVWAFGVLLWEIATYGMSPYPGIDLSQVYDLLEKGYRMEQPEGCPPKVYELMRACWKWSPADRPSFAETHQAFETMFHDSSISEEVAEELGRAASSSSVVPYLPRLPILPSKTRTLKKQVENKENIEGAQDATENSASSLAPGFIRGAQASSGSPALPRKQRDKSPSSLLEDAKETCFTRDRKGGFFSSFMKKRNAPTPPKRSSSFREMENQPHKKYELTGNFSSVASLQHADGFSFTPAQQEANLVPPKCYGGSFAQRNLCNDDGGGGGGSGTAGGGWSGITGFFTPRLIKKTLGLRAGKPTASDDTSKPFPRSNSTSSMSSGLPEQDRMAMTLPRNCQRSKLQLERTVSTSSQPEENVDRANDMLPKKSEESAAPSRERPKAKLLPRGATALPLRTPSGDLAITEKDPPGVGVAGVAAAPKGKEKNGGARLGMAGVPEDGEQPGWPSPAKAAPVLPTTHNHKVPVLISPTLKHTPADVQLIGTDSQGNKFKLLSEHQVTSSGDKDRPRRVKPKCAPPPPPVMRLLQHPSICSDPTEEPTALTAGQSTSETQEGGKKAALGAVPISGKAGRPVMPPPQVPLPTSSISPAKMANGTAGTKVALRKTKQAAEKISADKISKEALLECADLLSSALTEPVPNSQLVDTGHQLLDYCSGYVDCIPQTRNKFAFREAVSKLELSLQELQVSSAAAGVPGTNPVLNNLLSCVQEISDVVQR
# [10] = target: Serine/threonine-protein kinase Nek7 (Homo sapiens) (UniProt Q8TDX7); assay: Selectivity interaction (ActivX KiNativ screen (kinase selectivity in THP-1 cell lysates)) EUB0000639a NEK7; type: subcellular; conditions: lysate, at 0.2 µM
# Chain of Serine/threonine-protein kinase Nek7 (Homo sapiens) (Q8TDX7 whole entry, looked up): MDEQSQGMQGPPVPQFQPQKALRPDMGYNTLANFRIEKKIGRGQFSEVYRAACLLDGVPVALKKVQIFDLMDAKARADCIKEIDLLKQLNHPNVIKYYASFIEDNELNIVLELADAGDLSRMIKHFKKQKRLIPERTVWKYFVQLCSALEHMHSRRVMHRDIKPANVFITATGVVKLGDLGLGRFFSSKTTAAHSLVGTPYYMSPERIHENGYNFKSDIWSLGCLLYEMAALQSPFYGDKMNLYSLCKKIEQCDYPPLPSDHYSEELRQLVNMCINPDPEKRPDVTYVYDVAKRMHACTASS
# [11] = target: Protein kinase C eta type (Homo sapiens) (UniProt P24723); assay: Selectivity interaction (Kinase panel (Invitrogen)) EUB0000639a PRKCH; conditions: at 200 nM
# [12] = target: Tyrosine-protein kinase SYK (Homo sapiens, UniProt P43405); assay: Selectivity interaction (ActivX KiNativ screen (kinase selectivity in THP-1 cell lysates)) EUB0000639a SYK; type: subcellular; conditions: lysate, at 0.01 µM
# [13] = target: Dual specificity mitogen-activated protein kinase kinase 2 (Homo sapiens) (UniProt P36507); assay: Selectivity interaction (KinomeScan (DiscoverX)) EUB0000092b MAP2K2; conditions: at 10 µM
# Chain of Dual specificity mitogen-activated protein kinase kinase 2 (Homo sapiens) (P36507 whole entry): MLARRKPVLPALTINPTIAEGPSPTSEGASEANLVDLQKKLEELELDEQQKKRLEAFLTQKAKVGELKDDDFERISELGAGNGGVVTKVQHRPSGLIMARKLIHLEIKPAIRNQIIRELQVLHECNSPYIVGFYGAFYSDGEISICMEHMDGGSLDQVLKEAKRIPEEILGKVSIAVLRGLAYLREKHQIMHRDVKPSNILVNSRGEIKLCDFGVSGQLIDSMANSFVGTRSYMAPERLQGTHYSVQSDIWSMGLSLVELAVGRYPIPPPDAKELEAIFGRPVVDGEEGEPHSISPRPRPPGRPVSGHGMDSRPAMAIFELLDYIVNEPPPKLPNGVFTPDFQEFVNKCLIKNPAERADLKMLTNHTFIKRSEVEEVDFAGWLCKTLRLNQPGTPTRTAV
# [14] = target: Serine/threonine-protein kinase Nek6 (Homo sapiens) (UniProt Q9HC98); assay: Selectivity interaction (KinomeScan (DiscoverX)) EUB0000092b NEK6; conditions: at 10 µM
# Chain of Serine/threonine-protein kinase Nek6 (Homo sapiens) (Q9HC98 whole entry): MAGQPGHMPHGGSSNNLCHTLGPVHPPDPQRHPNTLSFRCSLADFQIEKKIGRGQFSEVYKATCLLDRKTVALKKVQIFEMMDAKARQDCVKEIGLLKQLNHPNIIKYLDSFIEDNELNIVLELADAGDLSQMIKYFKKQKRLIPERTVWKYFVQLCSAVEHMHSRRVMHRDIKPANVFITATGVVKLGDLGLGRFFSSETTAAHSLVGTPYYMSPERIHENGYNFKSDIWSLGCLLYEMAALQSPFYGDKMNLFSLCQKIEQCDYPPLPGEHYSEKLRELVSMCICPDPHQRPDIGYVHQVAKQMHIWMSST
smiles,measurement,setting,value
COc1cc(N(C)c2ccnc3ccc(C(F)(F)F)cc23)cc(OC)c1OC,% binding,[1],81%
same,% binding,[2],78%
O=C(NOC[C@H](O)CO)c1ccc(F)c(F)c1Nc1ccc(I)cc1F,% of control,[3],100%
same,% of control,[4],89%
COc1cc(Nc2nc(C)cc(-c3cnn4nc(OC)ccc34)n2)cc(C(F)(F)F)c1,% of control,[5],77%
same,% of control,[6],99%
CNC(=O)Nc1ccc(-c2nc(N3CC4CCC(C3)O4)c3cnn(C4CCC5(CC4)OCCO5)c3n2)cc1,% of inhibition,[7],7%
CC[C@@H]1[C@H](F)C(=O)N[C@@H]1COc1nccc2cc(C(N)=O)c(OC)cc12 [ZIMLOVISERTIB],% of inhibition,[8],-15.4%
same,% of inhibition,[9],-13.2%
same,% of inhibition,[10],-2.2%
same,% of inhibition,[11],7.47%
same,% of inhibition,[12],7.1%
CCC(=O)N1CCN(c2ccc(-n3c(=O)ccc4cnc5ccc(-c6cnc7ccccc7c6)cc5c43)cc2C(F)(F)F)CC1,% of control,[13],100%
same,% of control,[14],99%
